Tests used:
HIV-1 = experiment: Comparison of suppressive activity of HIV proliferation with FAS and other anti-HIV drugs (syncytium formation); format: cell-based; details: for IC50: Human immunodeficiency virus 1, FIG. 5, approximate, read-out: 50% inhibitory concentration, syncytium formation
Procedure: Comparison of suppressive activity of HIV proliferation with FAS and other anti-HIV drugs.
Experiments were conducted by the same method as in Example 3.
The medicaments used in this experiment were compounds of the present invention (FAS, and a compound of formula [I] where R^1 is hydroxy as in the above-mentioned Japanese Patent Unexamined Publication No. 61-152658), ddI (Sigma Corp.) and AZT (Sigma Corp.) which are used as medicaments for the treatment of AIDS, and dextran sulfate (Sigma Corp.).

rabbit platelets = experiment: Platelet aggregation; format: cell-based, rabbit (male, Japanese white); details: for Platelet aggregation rate, ADP: ADP 5 μM, control 66.3 ± 1.4; for Platelet aggregation rate, ADP / Platelet aggregation rate, Collagen: N=4, mean ± S.E.; for Platelet aggregation rate, Collagen: collagen 5 μg/ml, control 82.3 ± 1.6
Procedure: Rabbits (male, Japanese white, body weight 2-3 kg, Oriental Yeast Co.) were used. Blood was collected from an ear vein, a 1/10 volume of 3.8% sodium citrate was added thereto, and the mixture was centrifuged at 1,000 rpm for 10 minutes.
The supernatant separated by this action was designated platelet rich plasma (PRP), and the precipitate was further centrifuged at 3,000 rpm for 10 minutes to obtain a further supernatant, which was designated platelet poor plasma (PPP).
The number of platelets in the PRP was adjusted to 3×10^5 plate/μl by adding the PPP. A test sample was added to the PRP. After 1 minute, a prepared aqueous solution of ADP (adenosine diphosphate, Sigma Corp.) was added at the final concentration of 5 μM, or an aqueous solution of collagen (Sigma Corp.) was added at the final concentration of 5 μg/ml. The agglutination reaction was measured by using an agglico meter (NBS HEMA TRACER VI). The inhibition rate was calculated by comparing the maximum optical transmittance in samples with the compound to the maximum optical transmittance in samples with a physiological saline.
The compounds used were compounds of the present invention (FAS, and the compound of formula [I] where R^1 is hydroxy (Japanese Patent Unexamined Publication No. 61-152658) and adenosine (Sigma Corp.).

[1] = tested on: Herpes simplex virus type I; experiment: Inhibitory action for plaque formation of Herpes simplex virus type I; format: cell-based; details: mean of two, control 51
Procedure: (§1) Experiments were performed according to a method described in Antiviral Chemistry and Chemotherapy, 5 (6), 366-371, 1994 and Experimental Virology, Ed. by NIH Japan alumni assoc., Maruzen Publ. 1982, p. 65-78 or p. 331-340.
(§2) Vero cells cultured in the medium (Dulbecco's modified MEM added with 10% FBS) were detached by trypsin (Sigma Corp.). The detached cells were suspended by 2×10^5 cells/ml in the same medium, and placed in the wells of a 48 hole plate. The plate was incubated at 37° C. under 5% CO2 for about one day to complete a full-sheet of the cells in all wells. After incubation, cultured supernatant was removed. A solution (50 μl) containing the compound diluted with 4-fold stepwise dilution by virus culture medium (MM: Dulbecco's modified MEM added with 2% FBS), was added thereto.
(§3) A viral solution, 50 μl, in which the number of virus (parainfluenza virus or Herpes simplex virus type I) was adjusted to about 50 pfu (plaque forming unit)/50 μl by MM, was added to each well. MM 400 μl containing 1% methylcellulose was added in each well to provide a compound-added test group. A control group was prepared by adding the viral culture medium without adding the test compound.
(§4) The groups were incubated at 37° C. under 5% CO2 for three days to form plaques and the number of plaques in each well was counted.
(§5) The test compounds were FAS, and the compound of formula [I] where R^1 is hydroxy. The final concentration of the compound in the solution was set to 100, 25, 6.3 and 1.6 μg/ml, respectively. Each test group included 2 wells and a mean of the plaque numbers was obtained.

parainfluenza virus = experiment: Inhibitory action for plaque formation of parainfluenza virus; format: cell-based; details: mean of two, control 51.5
Procedure: as §1, §2, §3, §4, §5

rabbit plasma = experiment: Blood coagulation time (APTT, PT); design: species or system rabbit (male, Japanese white); details: for PT / APTT: N=4, mean ± S.E.; for PT: control 5.8 ± 0.1; for APTT: control 21.2 ± 0.5
Procedure: a) Blood coagulation time:
Rabbits (male, Japanese white, body weight 2-3 kg, Oriental Yeast Co.) were used. […] After adding the test compound to the resultant plasma, activated partial thromboplastin time (APTT) and prothrombin time (PT) were measured by using a coagulometer (Coagtec, Coagtec TE600, EMRA; KC-10A, Baxter).

Acute toxicity in mice = experiment: Acute toxicity in mice; design: species or system mouse (Slc: ddy, 5 weeks); details: mouse, in vivo, iv, i. v., male
Procedure: Acute toxicity of the compounds of the present invention were conducted on rats and mice, and low toxicity was confirmed.

HIV = details: Antiviral Res., 22: 273-283, 1993; cited from earlier work
[2] = tested on: Env (gp120) protein, HIV-1 infected MOLT-4 cells; experiment: Suppressive action on expression of Env (gp120) protein on the surface of cells; format: cell-based; details: FIG. 3; Env positive cells after 5 days
Procedure: (Suppressive action on expression of Env (gp120) protein on the surface of cells.)
Cells obtained by culturing MOLT-4 (culture condition: 37° C., 5% CO2 /95% air, RPMI medium (GIBCO Corp.) containing 10% FBS) were adjusted to a preferable number of cells (1×10^5 cells/50 μl ). The cell suspension, 50 μl, (infected with MOLT-4 and HIV-1: M.O.I.=1.0) was put in a 96 hole microplate and cultured for 1 hour to infect the cells.
A solution of the compound shown below, 100 μl, was added in each well and cultured for 5 days. The cultured solution was transferred into a plastic tube (Eppendorf Corp.) and centrifuged to collect the cells. The cells were treated with mouse anti-Env gp120 monoclonal antibody (Replingen Inc.) as a primary antibody and FITC (Fluorescein Isothiocyanate) labelled goat anti-mouse IgG (Cappel Corp.) as a secondary antibody to fluoresce. The number of fluorescent cells was fluoroscopically calculated by counting fluorescent cells according to an indirect fluorescent antibody technique (Techniques in HIV Research, Ed. A. Aldoriny and B. D. Walker, Stokton Press, New York, 1990).
Env positive cells (%) was calculated by the following equation:
Env positive cells (%)=(FITC) positive cells/total cells)×100
Compounds: FAS, H-7 and KN-62.
Control: solution without compound was used.

[3] = tested on: HIV-1 (LAV-1 strain) in MOLT-4 cells; experiment: Inhibitory activity of HIV syncytia formation: HIV-1 acute-phase infection; format: cell-based; details: for inhibition at 30 µM: Human immunodeficiency virus 1, MOLT-4, in concentrations of 30 μM, 48 hours; for inhibitory effects on syncytia formation: in concentrations of 2.0 μM
Procedure: a) Activity of the medicament on HIV-1 acute-phase infection:
Cells obtained by culturing MOLT-4 (American Type Culture Collection ATCC CRL-1582) in RPMI medium (GIBCO Corp.) containing 10% FBS (fetal bovine serum: GIBCO Corp.) (culture condition: 37° C., 5% CO2 /95% air) were prepared to aliquot number of cells (1×10^5 cells/50 μl). The cell suspension, 50 μl and the liquid preparation, 50 μl containing HIV-1 (LAV-1 strain, Wain-Hobson et al., Cell 40: 9-17, 1985) in RPMI medium with 10% FBS were put into each well of a 96 hole microplate and cultured for 48 hours (Infectious condition of MOLT-4 and HIV-1: M.O.I.=4.0).
Each compound was dissolved in RPMI medium containing 10% FBS at the final concentration as shown in FIG. 1 to prepare the medicament solution. The medicament solution, 100 μl was added to the mixture of MOLT-4 cell preparation and HIV-1 preparation at the time of mixing with MOLT-4 and HIV-1 to prepare the final volume of the liquid, 200 μl. The number of formed syncytia were microscopically counted.
Tested compounds were: FAS (fasudil hydrochloride, Chem. Pharm. Bull., 40 (3), 770-773, (1992)), C kinase inhibitor H-7 (1-5-isoquinolinylsulfonyl)-2-methyl-piperazine, Sigma Corp.), and calmodulin kinase II inhibitor KN-62 (1-(N,O-bis-[5-isoquinolinylsulfonyl]-N-methyl-L-tyrosyl)-4-phenyl-piperazine, Sigma Corp., Neuroscience Lett., 129, 47 (1991)) .
The control group without the compound was prepared by replacing the medicament solution, 100 μl.
Syncytium formation activity was calculated by comparing the syncytia formation in the test group to that of the control group in the following equation.
Syncytium formation activity=number of syncytia formed in the medicament-added group/number of syncytia formed in the no-medicament-added group.

[4] = tested on: HIV-1 (LAV-1) persistently infected MOLT-4 cells with non-infected MOLT-4 cells; experiment: Inhibitory activity of HIV syncytia formation: HIV-1 chronic-phase infection; format: cell-based; details: FIG. 2; 48 hours
Procedure: b) Activity of the medicament on HIV-1 chronic-phase infection:
Cells obtained by culturing MOLT-4 (culture condition: 37° C., 5% CO2 /95% air, RPMI medium (GIBCO Corp.) containing 10% FBS) were adjusted to a preferable number of cells (1×10^5 cells/50 μl). HIV-1 (LAV-1) preparation, 50 μl was added to the cell suspension, 50 μl and subjected to a mixing culture (infectious condition of HIV-1 to MOLT-4: M.O.I.=1). The infected cell mixture was cultured by exchanging a fresh culture medium every 3 days at a volume rate of 2:5. The culture was continued for more than 1 month to prepare persistent infected cells. The concentration of the persistent infected cells was adjusted to a preferable number of cells (1×10^5 cells/50 μl ) (the persistent infected cell preparation).
Cell preparation without infection was prepared by culturing MOLT-4 (culture condition: 37° C., 5% CO2 /95% air, RPMI medium (GIBCO Corp.) containing 10% FBS) and adjusting the concentration to a preferable number of cells (1×10^5 cells/50 μl).
The persistent infected cell preparation, 50 μl, was placed in the wells of a 96 hole microplate and the non-infected cell preparation, 50 μl, was added therein and cultured for 48 hours. Numbers of the formed syncytia were counted microscopically.
Each compound solution tested was added, 100 μl, at the time of mixing the persistent infected cell preparation with the non-infected cell preparation, to provide the final concentrations shown in FIG. 2 (medicament added test group).
The no-medicament-added group (control group) was prepared by replacing the compound solution, 100 μl.

Cc1cn([C@H]2C[C@H](N=[N+]=[N-])[C@@H](CO)O2)c(=O)[nH]c1=O [AZT, 3'-azido-3'-deoxythymidine]
IC50 (HIV-1): ~50 µM

Nc1ncnc2c1ncn2[C@@H]1O[C@H](CO)[C@@H](O)[C@H]1O [Adenosine, adenosine]
effect on ADP coagulation and collagen coagulation (rabbit platelets): suppressed ADP coagulation and collagen coagulation

O=S(=O)(c1cccc2c(O)nccc12)N1CCCNCC1 [Compound of the formula [I] (R^1 = OH)]
Plaque No. ([1]; 1.6 μg/ml): 51
Plaque No. ([1]; 6.3 μg/ml): 51
Plaque No. ([1]; 25 μg/ml): 56
Plaque No. ([1]; 100 μg/ml): 37.5
Plaque No. (parainfluenza virus; 25 μg/ml): 59
Plaque No. (parainfluenza virus; 100 μg/ml): 4.5
Platelet aggregation rate, ADP (rabbit platelets; 10 μM): 63.0 ± 2.3%
Platelet aggregation rate, Collagen (rabbit platelets; 10 μM): 80.0 ± 1.7%
Platelet aggregation rate, ADP (rabbit platelets; 30 μM): 63.8 ± 2.9%
Platelet aggregation rate, Collagen (rabbit platelets; 30 μM): 79.3 ± 1.1%
Platelet aggregation rate, ADP (rabbit platelets; 100 μM): 64.3 ± 3.8%
Platelet aggregation rate, Collagen (rabbit platelets; 100 μM): 81.0 ± 1.2%
effect on blood coagulation time (APTT, PT) (rabbit plasma): no effect on blood coagulation time
PT (rabbit plasma; 30 μM): 5.6 ± 0.1 s
APTT (rabbit plasma; 30 μM): 20.2 ± 0.4 s
PT (rabbit plasma; 100 μM): 5.5 ± 0.1 s
APTT (rabbit plasma; 100 μM): 20.1 ± 0.4 s
LD50 (Acute toxicity in mice): 119 mg/kg
inhibitory activity of syncytium formation of HIV-1 (HIV-1): inhibited the formation of syncytium of HIV-1

CC1CNCCN1S(=O)(=O)c1cccc2cnccc12 (centres unmarked) [H-7, 1-(5-isoquinoryl-sulfonyl)-2-methyl-piperazine]
effectiveness against HIV infectious disease (HIV): has not been found to be clearly effective
inhibitory activity for Env expression [2]: no significant inhibitory activity for Env expression
inhibition at 30 µM [3]: ~50%
inhibitory effects on syncytia formation [3]: no inhibitory effects were observed
inhibitory activity for syncytium formation [4]: no inhibitory activity for syncytium formation

CN([C@@H](Cc1ccc(OS(=O)(=O)c2cccc3cnccc23)cc1)C(=O)N1CCN(c2ccccc2)CC1)S(=O)(=O)c1cccc2cnccc12 [KN-62, 1-(N,O-bis-[5-isoquinolinylsulfonyl]-N-methyl-L-tyrosyl)-4-phenyl-piperazine]
inhibitory activity for Env expression [2]: weak inhibitory activity for Env expression
inhibition at 30 µM [3]: ~75%
inhibitory effects on syncytia formation [3]: no inhibitory effects were observed
inhibitory activity for syncytium formation [4]: no inhibitory activity for syncytium formation

OC[C@@H]1CC[C@H](n2cnc3c(O)ncnc32)O1 [ddI, 2', 3'-dideoxyinosine]
IC50 (HIV-1): ~100 µM

Heparin
effect on blood coagulation time (APTT, PT) (rabbit plasma): clearly extended APTT and PT
